According to ChEMBL document CHEMBL1201862, “PubChem BioAssay data set” (2004):
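The compound was tested at five concentrations on cells cultured in 96-well plates, with a 48-hour exposure period. GI50: concentration for 50% inhibition of growth.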 Calls of active or inactive are those of the source. Cut-off read from the data, not from the text of the source: active = GI50 up to about 1.1 µM and inactive = higher.

Assays:
Experiment in all cases: NCI-60 cell line screen, 48 h
UO-31 = tested on: UO-31
SF-295 = tested on: SF-295
SW-620 = tested on: SW-620
786-0 = tested on: 786-0
SNB-19 = tested on: SNB-19
Hs-578T = tested on: Hs-578T
NCI-H23 = tested on: NCI-H23
HOP-62 = tested on: HOP-62
HCT-15 = tested on: HCT-15
U-251 = tested on: U-251
TK-10 = tested on: TK-10
PC-3 = tested on: PC-3
COLO 205 = tested on: COLO 205
A498 = tested on: A498
EKVX = tested on: EKVX
OVCAR-3 = tested on: OVCAR-3
A549 = tested on: A549
CCRF-CEM = tested on: CCRF-CEM
OVCAR-8 = tested on: OVCAR-8
OVCAR-5 = tested on: OVCAR-5
NCI-H460 = tested on: NCI-H460
OVCAR-4 = tested on: OVCAR-4
HT-29 = tested on: HT-29
IGROV-1 = tested on: IGROV-1
HL-60 = tested on: HL-60
MOLT-4 = tested on: MOLT-4
SN12C = tested on: SN12C
HCT-116 = tested on: HCT-116
SF-539 = tested on: SF-539
MDA-MB-435 = tested on: MDA-MB-435
HCC 2998 = tested on: HCC 2998
UACC-62 = tested on: UACC-62
NCI/ADR-RES = tested on: NCI/ADR-RES
RXF 393 = tested on: RXF 393
T47D = tested on: T47D
HOP-92 = tested on: HOP-92
SK-OV-3 = tested on: SK-OV-3
ACHN = tested on: ACHN
SK-MEL-28 = tested on: SK-MEL-28
M14 = tested on: M14
Malme-3M = tested on: Malme-3M
SK-MEL-5 = tested on: SK-MEL-5
DU-145 = tested on: DU-145
MCF7 = tested on: MCF7
NCI-H522 = tested on: NCI-H522
UACC-257 = tested on: UACC-257
SF-268 = tested on: SF-268
SNB-75 = tested on: SNB-75
K562 = tested on: K562
SR = tested on: SR
KM12 = tested on: KM12
CAKI-1 = tested on: CAKI-1

For c1ccc2c(Cc3nnc4sc(SSc5nn6c(Cc7c[nH]c8ccccc78)nnc6s5)nn34)c[nH]c2c1, which GI50 (UO-31) is on record?
Its GI50 is 14.5 µM (inactive).

What about the GI50 (SF-295) of the same compound?
Its GI50 is 19.5 µM (inactive).

What about the GI50 (SW-620) of the same compound?
Its GI50 is 16.7 µM (inactive).

What about the GI50 (786-0) of the same compound?
The GI50 was 20.8 µM (inactive).

What about the GI50 (SNB-19) of the same compound?
Its GI50 is 31 µM (inactive).

What about the GI50 (Hs-578T) of the same compound?
Its GI50 is 23.8 µM (inactive).

And the GI50 (NCI-H23)?
The GI50 was 19.1 µM (inactive).

What about the GI50 (HOP-62) of the same compound?
The GI50 was 16.2 µM (inactive).

What about the GI50 (HCT-15) of the same compound?
The GI50 was 21.3 µM.

What about the GI50 (U-251) of the same compound?
The GI50 was 21.7 µM (inactive).

What about the GI50 (TK-10) of the same compound?
The GI50 was 38.7 µM (inactive).

And the GI50 (PC-3)?
The GI50 was 19.3 µM (inactive).

And the GI50 (COLO 205)?
Its GI50 is 21.1 µM (inactive).

What about the GI50 (A498) of the same compound?
Its GI50 is 11.3 µM (inactive).

And the GI50 (EKVX)?
Its GI50 is 23 µM (inactive).

And the GI50 (OVCAR-3)?
Its GI50 is 11.8 µM (inactive).

What about the GI50 (A549) of the same compound?
Its GI50 is 28.8 µM (inactive).

And the GI50 (CCRF-CEM)?
Its GI50 is 32.6 µM (inactive).

And the GI50 (OVCAR-8)?
The GI50 was 26.4 µM (inactive).

What about the GI50 (OVCAR-5) of the same compound?
The GI50 was 26.2 µM (inactive).

What about the GI50 (NCI-H460) of the same compound?
Its GI50 is 30.4 µM (inactive).

What about the GI50 (OVCAR-4) of the same compound?
The GI50 was 58.1 µM (inactive).

And the GI50 (HT-29)?
Its GI50 is 22.5 µM (inactive).

And the GI50 (IGROV-1)?
Its GI50 is 2.99 µM (inactive).

And the GI50 (HL-60)?
Its GI50 is 24.2 µM (inactive).

And the GI50 (MOLT-4)?
Its GI50 is 8.93 µM (inactive).

What about the GI50 (SN12C) of the same compound?
The GI50 was 18.7 µM (inactive).

And the GI50 (HCT-116)?
The GI50 was 16 µM (inactive).

What about the GI50 (SF-539) of the same compound?
Its GI50 is 23.1 µM (inactive).

And the GI50 (MDA-MB-435)?
Its GI50 is 19 µM (inactive).

What about the GI50 (HCC 2998) of the same compound?
The GI50 was 16.7 µM (inactive).

And the GI50 (UACC-62)?
The GI50 was 16 µM (inactive).

And the GI50 (NCI/ADR-RES)?
The GI50 was 20.3 µM (inactive).

And the GI50 (RXF 393)?
The GI50 was 18.8 µM (inactive).

What about the GI50 (T47D) of the same compound?
The GI50 was 23.2 µM (inactive).

And the GI50 (HOP-92)?
The GI50 was 31 µM (inactive).

What about the GI50 (SK-OV-3) of the same compound?
The GI50 was 39.9 µM (inactive).

And the GI50 (ACHN)?
The GI50 was 26.4 µM (inactive).

And the GI50 (SK-MEL-28)?
The GI50 was 33.5 µM (inactive).

And the GI50 (M14)?
Its GI50 is 18.5 µM (inactive).

And the GI50 (Malme-3M)?
Its GI50 is 31.3 µM (inactive).

What about the GI50 (SK-MEL-5) of the same compound?
The GI50 was 11.2 µM (inactive).

And the GI50 (DU-145)?
The GI50 was 26.3 µM (inactive).

And the GI50 (MCF7)?
The GI50 was 15.1 µM (inactive).

And the GI50 (NCI-H522)?
The GI50 was 17.9 µM (inactive).

And the GI50 (UACC-257)?
The GI50 was 33 µM (inactive).

What about the GI50 (SF-268) of the same compound?
The GI50 was 21.8 µM (inactive).

What about the GI50 (SNB-75) of the same compound?
The GI50 was 48.2 µM (inactive).

What about the GI50 (K562) of the same compound?
Its GI50 is 17.4 µM (inactive).

And the GI50 (SR)?
The GI50 was 18.1 µM (inactive).

And the GI50 (KM12)?
Its GI50 is 22.9 µM (inactive).

And the GI50 (CAKI-1)?
The GI50 was 18.7 µM (inactive).
